Experiment: xn = mol fraction of the nth substance listed

O=P(O)(O)O + CCCCCCCCO
viscosity [mPa·s], 101 kPa
Conditions	x1 = 0.0266	x1 = 0.0485	x1 = 0.0865	x1 = 0.1055	x1 = 0.149	x1 = 0.1867	x1 = 0.2054	x1 = 0.2487	x1 = 0.2753	x1 = 0.3073
293.15 K	10.8	11.16	14.06	15.07	19.85	30.76	35.99	40.67	45.65	48.76
303.15 K	6.465	7.085	8.327	9.414	11.8	15.79	17.99	21.76	25.77	28
313.15 K	4.823	5.02	5.655	6.55	7.186	8.765	9.786	11.34	14.18	15.19
323.15 K	3.614	3.765	3.995	4.223	4.716	5.176	5.564	6.076	6.308	6.896

CCCOCC(C)OCC(C)O (configuration not stated) + CCCCCCCO
298.15 K, 101 kPa
Conditions	viscosity [mPa·s]
x1 = 0.0145	5.795
x1 = 0.0297	5.725
x1 = 0.072	5.58
x1 = 0.1172	5.426
x1 = 0.1578	5.332
x1 = 0.2004	5.236
x1 = 0.2276	5.185
x1 = 0.2594	5.134
x1 = 0.3052	5.067
x1 = 0.4171	4.913
x1 = 0.4502	4.864
x1 = 0.5104	4.775
x1 = 0.5572	4.699
x1 = 0.6014	4.616
x1 = 0.6573	4.51
x1 = 0.7008	4.419
x1 = 0.7589	4.295
x1 = 0.8	4.207
x1 = 0.8512	4.098
x1 = 0.9118	3.985
x1 = 0.9578	3.916
x2 = 0.009	3.879
x2 = 0.0121	3.88

Cl + CCCCCCCO
298.15 K, 101 kPa
Conditions	viscosity [mPa·s]
x1 = 0.05	6.22
x1 = 0.1	7.02
x1 = 0.15	7.6
x1 = 0.19	8.18
x1 = 0.23	8.66
x1 = 0.26	9.02
x1 = 0.29	9.22
x1 = 0.32	9.3
x1 = 0.34	9.26
x1 = 0.37	9.08
x1 = 0.39	8.86
x1 = 0.41	8.62
x1 = 0.43	8.4
x1 = 0.45	8.2

CCCOCC(C)OCC(C)O (configuration not stated) + CCCCCO
298.15 K, 101 kPa
Conditions	viscosity [mPa·s]
x1 = 0.0566	3.194
x1 = 0.1564	3.499
x1 = 0.2104	3.49
x1 = 0.2577	3.486
x1 = 0.3103	3.484
x1 = 0.3524	3.483
x1 = 0.4027	3.481
x1 = 0.4592	3.494
x1 = 0.5107	3.516
x1 = 0.5585	3.545
x1 = 0.6219	3.59
x1 = 0.6862	3.64
x1 = 0.7322	3.684
x1 = 0.7995	3.733
x1 = 0.9032	3.807
x1 = 0.9629	3.849
x2 = 0.0139	3.867

CC(=O)OCCC(C)C + CCCCN
303.15 K, 101 kPa
Conditions	viscosity [mPa·s]
x2 = 0.2734	0.7086
x2 = 0.4416	0.6996
x2 = 0.5646	0.6833
x2 = 0.6446	0.6711
x2 = 0.7489	0.6443
x2 = 0.8075	0.6212
x2 = 0.8664	0.5934
x2 = 0.8969	0.5868

CCCCCCCC/C=C\CCCCCCCC(=O)OCC + CCCCO
viscosity [mPa·s], 100 kPa
Conditions	x1 = 0.1	x1 = 0.2	x1 = 0.3	x1 = 0.4	x1 = 0.5	x1 = 0.6	x1 = 0.7	x1 = 0.8	x1 = 0.9
293.15 K	3.187	3.558	3.946	4.315	4.68	5.024	5.358	5.682	6.011
298.15 K	2.818	3.143	3.481	3.808	4.131	4.437	4.732	5.013	5.31
303.15 K	2.491	2.782	3.08	3.371	3.649	3.918	4.175	4.419	4.678
308.15 K	2.217	2.48	2.746	3.002	3.25	3.486	3.713	3.931	4.16
313.15 K	1.983	2.223	2.46	2.683	2.897	3.103	3.3	3.49	3.691
318.15 K	1.776	1.998	2.214	2.421	2.62	2.81	2.991	3.165	3.35
323.15 K	1.6	1.806	2.002	2.192	2.371	2.543	2.707	2.865	3.032

CC(=O)OCCC(C)C + CCCCOC(C)=O
viscosity [mPa·s], 101 kPa
Conditions	x1 = 0.2	x1 = 0.4	x1 = 0.6	x1 = 0.8
293.15 K	0.75	0.776	0.802	0.831
313.15 K	0.575	0.592	0.611	0.629

CCCCCCCC/C=C\CCCCCCCC(=O)OCC + CCCO
Conditions	viscosity [mPa·s]
303.15 K, 101 kPa, x2 = 0.2	4.435

CCCOCC(C)OCC(C)O (configuration not stated) + CCCO
298.15 K, 101 kPa
Conditions	viscosity [mPa·s]
x1 = 0.0061	1.977
x1 = 0.0137	1.998
x1 = 0.028	2.036
x1 = 0.0763	2.163
x1 = 0.1234	2.28
x1 = 0.1783	2.416
x1 = 0.2361	2.556
x1 = 0.3132	2.74
x1 = 0.3684	2.862
x1 = 0.4279	2.985
x1 = 0.4905	3.102
x1 = 0.5267	3.164
x1 = 0.5714	3.239
x1 = 0.6634	3.388
x1 = 0.7271	3.495
x1 = 0.8017	3.617
x1 = 0.8701	3.728
x1 = 0.9055	3.78
x1 = 0.9497	3.837

CCCC(=O)[O-].[NH3+]CCO + CCO
viscosity [mPa·s], 101 kPa
Conditions	x1 = 0.0158	x2 = 0.7685	x2 = 0.8306	x2 = 0.8824	x2 = 0.9289	x2 = 0.9483	x2 = 0.9671
293.15 K	1.608	15.79	8.436	4.968	2.91	2.364	1.944
298.15 K	1.458	13.23	7.272	4.398	2.598	2.148	1.752
303.15 K	1.35	11.24	6.33	3.882	2.34	1.92	1.602

CCCOCC(C)OCC(C)O (configuration not stated) + CCO
viscosity [mPa·s], 101.33 kPa
Conditions	298.15 K	308.15 K	318.15 K
x1 = 0.05	1.27	1.046	0.872
x1 = 0.1	1.446	1.181	0.978
x1 = 0.15	1.621	1.315	1.081
x1 = 0.2	1.799	1.446	1.18
x1 = 0.25	1.994	1.572	1.278
x1 = 0.3	2.144	1.706	1.374
x1 = 0.3501	2.322	1.83	1.468
x1 = 0.4	2.485	1.944	1.55
x1 = 0.4501	2.643	2.055	1.631
x1 = 0.5	2.795	2.163	1.705
x1 = 0.55	2.942	2.27	1.777
x1 = 0.6	3.081	2.367	1.842
x1 = 0.6497	3.218	2.463	1.905
x1 = 0.6996	3.343	2.55	1.965
x1 = 0.7496	3.475	2.627	2.02
x1 = 0.8	3.593	2.702	2.081
x1 = 0.8499	3.704	2.764	2.131
x1 = 0.8999	3.807	2.839	2.177
x1 = 0.95	3.896	2.906	2.215

CC(=O)Nc1ccccc1 + CO
viscosity [mPa·s], 101 kPa
Conditions	298.15 K	303.15 K	308.15 K	313.15 K
x1 = 0.08868	0.9964	0.918	0.8461	0.7805
x1 = 0.1132	1.158	1.057	0.9716	0.886

CCCOCC(C)OCC(C)O (configuration not stated) + CO
298.15 K, 101 kPa
Conditions	viscosity [mPa·s]
x1 = 0.0049	0.5615
x1 = 0.0317	0.671
x1 = 0.0663	0.8138
x1 = 0.1021	0.9677
x1 = 0.1531	1.186
x1 = 0.2032	1.412
x1 = 0.2563	1.651
x1 = 0.3125	1.899
x1 = 0.3556	2.09
x1 = 0.4091	2.314
x1 = 0.4685	2.55
x1 = 0.5204	2.746
x1 = 0.5557	2.869
x1 = 0.6337	3.117
x1 = 0.6879	3.273
x1 = 0.7232	3.366
x1 = 0.8407	3.639
x1 = 0.8827	3.724
x1 = 0.937	3.813

CC(=O)OCCC(C)C + Cc1ccc(C)cc1
viscosity [mPa·s], 101 kPa
Conditions	298.15 K	308.15 K
x1 = 0.0453	0.615	0.54
x1 = 0.1495	0.617	0.55
x1 = 0.2436	0.622	0.561
x1 = 0.3501	0.632	0.576
x1 = 0.4497	0.644	0.594
x1 = 0.4974	0.651	0.603
x1 = 0.5484	0.659	0.613
x1 = 0.6458	0.678	0.636
x1 = 0.7503	0.702	0.663
x1 = 0.8492	0.73	0.693
x1 = 0.9411	0.76	0.725

CC(=O)OCCC(C)C + Cc1cccc(C)c1
viscosity [mPa·s], 101 kPa
Conditions	298.15 K	308.15 K
x1 = 0.0471	0.58	0.529
x1 = 0.1507	0.583	0.538
x1 = 0.286	0.593	0.555
x1 = 0.3495	0.599	0.564
x1 = 0.4475	0.614	0.582
x1 = 0.5021	0.625	0.594
x1 = 0.5481	0.634	0.604
x1 = 0.6499	0.659	0.63
x1 = 0.7526	0.69	0.66
x1 = 0.8535	0.724	0.693
x1 = 0.942	0.757	0.725
